“Also recorded” adds a separate entry of the source.
What was measured:
[1] = test system: hASCs (human adipose-derived stromal cells); assay: Cytotoxicity IC50, TOX-8 resazurin assay, hASCs, 24 h; format: cell-based; details: hASCs, TOX-8 assay, 24 h
Protocol: Human Adipose Tissue-derived Stem Cells (hASCs) were isolated from subcutaneous adipose tissue fragments harvested from non-diabetic female donors (age range 33–38, n = 2) during standard surgical procedure of total hip arthroplasty. Immediately after collection of tissue, the samples were placed in sterile tissue-transport medium (Hank’s Balanced Salt Solution (HBSS) supplemented with 1% Penicillin/Streptomycin/Amphotericin B solution (P/S/A). Mesenchymal stromal cell isolation was performed using enzymatic digestion of extracellular matrix with collagenase type I. Before digestion, tissue specimens were washed twice with HBSS and incubated in collagenase type I solution (1 mg/mL) at 37 °C for 40 min. The digest was subsequently centrifuged (1200 × g; 10 minutes; room temperature) and the cell pellet was resuspended in Dulbecco’s modified Eagle’s medium (DMEM) with Nutrient F-12 Ham, 10% of Fetal Bovine Serum (FBS), and 1% of P/S/A, transferred to a culture flask, and kept in culture under optimal conditions (37 °C in a humidified atmosphere of 5% CO2). The medium was refreshed every 2–3 days. At 80–90% confluence, the cells were passaged using trypsin solution (TrypLE Express, Life Technologies, California, USA). At passage 3, hASCs were collected and cellular phenotype was confirmed by the high expression of markers CD44, CD29, CD73, CD105 and low expression of CD45. Moreover, the trilineage differentiation capacity of ASCs was confirmed as previously described.
The IC50 values were determined using in vitro Toxicology TOX-8 Assay Kit (resazurin based) according to the manufacturer’s protocol. For this assay, cells were seeded in a 96-well plate at a density of 5 × 10^3 cells/well. The cells were pre-incubated in drug-free complete medium for 24 h before adding various concentrations of the compounds to be investigated. Stock solutions of the compounds were prepared in DMSO following serial dilutions in DMEM with Nutrient F-12 Ham complete medium. The cells exposure period was 24 h. After that time media were replaced with 10% v/v resazurin dye solution in fresh complete culture medium. Incubation was carried out for 2 h at 37 °C in the CO2 incubator. Reduction of the dye was measured spectrophotometrically at 600 nm and 690 nm reference wavelength (Epoch, Biotek). Absorbance measurements allowed the determination of viable treated cells relative to untreated controls using the inflection point of a dose-response graph. IC50 values were estimated as duplicates of triplicate readings in two independent experiments.

hASCs = assay: Confocal imaging of mitochondrial network (MitoRed) and F-actin (Phalloidin Atto 590) in hASCs; format: cell-based, human; details: 20 µM, 24 h
Protocol: The mitochondrial network was visualized using MitoRed staining. After 24-hours treatment with either Ke, KeP or KeOP, the media were removed and replaced with MitoRed dye in 1:1000 dilution in fresh complete media. Cells were incubated for 30 minutes at 37 °C, then washed with Phosphate Buffered Saline (PBS), fixed with 4% paraformaldehyde (PFA) solution, washed three times and nuclei were counterstained with diamidino-2-phenylindole (DAPI).
In order to perform F-actin imaging, cells were fixed with 4% PFA solution, washed with PBS and then permeabilized using 0.5% TX-100 (incubation 15 minutes, room temperature). The cells were rinsed and incubated with Phalloidin-Atto 590 solution in PBS (dilution 1:1000) at 37 °C for 30 minutes in the dark. After washing, the cells were counterstained with DAPI.
Cells were observed and images were taken using confocal microscopy performed with a Leica TCS-SP8 laser scanning confocal microscope. Data were further processed with the use of ImageJ software.

Row | SMILES | IC50 (cytotoxicity, hASCs viability) [1] | mitochondrial membrane potential (MitoRed staining) (hASCs) | number of mitochondria (MitoRed staining) (hASCs)
1 | S=P(CN1CCN(c2ccc(OC[C@H]3CO[C@](Cn4ccnc4)(c4ccc(Cl)cc4Cl)O3)cc2)CC1)(c1ccccc1)c1ccccc1 [KeSP, Ph2P(S)CH2-Ke] | not cytotoxic in the tested concentration range; also recorded: not toxic |  | 
2 | Clc1ccc([C@@]2(Cn3ccnc3)OC[C@H](COc3ccc(N4CCN(CP(c5ccccc5)c5ccccc5)CC4)cc3)O2)c(Cl)c1 (racemic) [KeP, Ph2PCH2-Ke] |  | lowest mitochondrial membrane potential | lowest number of mitochondria

Reference: article PMC6838151 (Scientific Reports, 2019)
